Measurements as given in US11845735B2, “Method for synthesizing (RS)-Warfarin” (priority 2021, dated 2023).

How the values were obtained:
[1] = system: extrinsic and common coagulation pathways; assay: prothrombin time (PT) test in rats after oral feeding; assay type: in vivo; settings: male rats; for International Normalized Ratio / Prothrombin Time: 5 mg/kg fed, blood collected after 24 hours, citrated plasma
Protocol: In this example, the anticoagulation effect of an exemplary (RS)-Warfarin was evaluated by an exemplary prothrombin time (PT) test. PT test may refer to an exemplary method carried out for monitoring oral anticoagulant therapy. PT test may measure the period of time it takes for a clot to form in a blood sample. In particular, PT test may measure the activity of exemplary coagulation factors involved in one or more exemplary extrinsic and common coagulation pathways. In one or more exemplary embodiments, prothrombin time may increase in response to inhibition of vitamin K-dependent procoagulant clotting factors (i.e., exemplary factors VII and X and prothrombin).
(§1) In an exemplary implementation, PT test may be accomplished in an animal model and may be compared to an exemplary commercial sample of Warfarin. In an exemplary implementation, 24 male rats were randomly separated into four groups, six rats in each group. Group I received distilled water (Control Group), Group II received an exemplary commercial Warfarin with an exemplary dose of 5 mg commercial Warfarin per weight of each rat (5 mg/kg), Group III received an exemplary synthesized (RS)-Warfarin with an exemplary dose of 5 mg (RS)-Warfarin per weight of each rat (5 mg/kg (Dose 1)), and Group IV received synthesized (RS)-Warfarin with an exemplary dose of 10 mg (RS)-Warfarin per weight of each rat (10 mg/kg (Dose 2)).
In an exemplary implementation, PT test was performed by feeding exemplary commercial Warfarin and Dose 1 of exemplary synthesized (RS)-Warfarin to Group II and Group III of rats, respectively. After 24 hours, exemplary blood samples were collected from two rats that were randomly selected from each of Group II and Group III. About 1.8 ml of each blood sample was added to exemplary tubes containing an exemplary anticoagulant, sodium citrate dihydrate. After centrifugation of each citrated blood sample at 2000 gr for 15 minutes, plasma was separated to be used for PT analysis. In an exemplary implementation, PT test may be performed by adding a mixture of thromboplastin and calcium to citrated plasma. Thromboplastin is a protein-phospholipid extract of tissue that may contain necessary phospholipids and tissue factors for promoting activation of factor X by factor VII. At the beginning of an exemplary anticoagulant therapy (e.g., Warfarin therapy), prothrombin time may reflect an exemplary depression of factor VII, because factor VII may have the shortest half-life among exemplary vitamin K-dependent factors. During an exemplary maintenance therapy, PT test may be sensitive to the decrease in prothrombin and factor X levels. PTs and international normalized ratios (INRs) were measured for Group II and Group III of rats.

[2] = clinical chemistry tests for toxicity (urea, creatinine, SGOT, SGPT, LDH) in rats; assay type: in vivo; settings: 5 mg/kg (Dose 1) and 10 mg/kg (Dose 2) vs commercial Warfarin 5 mg/kg, blood after 24 hours
Protocol: as §1
In this example, toxicity of exemplary (RS)-Warfarin was assessed using one or more exemplary clinical chemistry tests, such as urea test, creatinine test, SGOT (glutamic oxaloacetic transaminase) test, SGPT (glutamate-pyruvate transaminase) test, and LDH (lactate dehydrogenase) test. In an exemplary implementation, Group II, Group III, and Group IV of rats were fed with exemplary commercial Warfarin, Dose 1 of exemplary synthesized (RS)-Warfarin, and Dose 2 of exemplary synthesized (RS)-Warfarin, respectively. […]

For `CC(=O)CC(c1ccccc1)c1c(O)c2ccccc2oc1=O` (racemic) [Exemplary Synthesized (RS)-Warfarin, 4-hydroxy-3-(3-oxo-1-phenylbutyl)-2H-1-benzopyran-2-one], the “anticoagulant effect in comparison to commercial Warfarin (PTs and INRs)” value ([1]; 5 mg/kg each, 24 hours) was “significantly increased anticoagulant effect”, the “International Normalized Ratio” value [1] was 3.4 and the “Prothrombin Time” value [1] was 24.4 s. For the same compound, the “urea, creatinine, SGOT, SGPT and LDH test results compared to rats fed with commercial Warfarin (FIG. 8)” value [2] was “may not significantly differ”.

For `CC(=O)CC(c1ccccc1)c1c(O)c2ccccc2oc1=O` (stereo not drawn) [Exemplary Commercial Warfarin, Warfarin], the “International Normalized Ratio” value [1] was 2.19 and the “Prothrombin Time” value [1] was 18.6 s.
